In US8309546B2, “Morpholinopurine derivatives” (Daiichi Sankyo Company, Limited, priority 2008, dated 2012):

Tests used:
[1] = tested on: Akt (threonine 308) phosphorylation in AN3CA tumor; experiment: Akt phosphorylation inhibition assay in xenograft; format: in vivo, female nude mouse; settings: Mus musculus, AN3-CA, oral, 6 hr after dosing
Procedure: (§1) A tumor section was prepared from a human endometrial cancer cell strain AN3CA tumor mass formed in a female nude mouse as subcutaneously transplanted tumor and a xenograft model was prepared by subcutaneously transplanting the tumor to a female nude mouse. The test compound at a predetermined concentration was orally administered. After a predetermined time, the anesthetized mouse was exsanguinated to death, and a tumor mass was isolated. The tumor mass was crushed using a lysis buffer containing inhibitors of proteases and dephosphorylating enzymes (Cell Signaling Technology, Inc.) and the supernatant was separated by centrifugation to obtain a tumor extract. The protein content of the tumor extract was measured using DC Protein Assay Kit (Bio-Rad Laboratories, Inc.) and phosphorylation conditions of Akt (threonine 308) and S6 (serine 235 and 236) were analyzed by a usual technique of western blotting using tumor extracts containing the same amount of protein. The primary antibody and the secondary antibody used for detecting each molecule were rabbit anti-phospho-Akt(T308) antibody and HRP-labeled goat anti-rabbit IgG antibody or mouse anti-phospho-S6(S235/236) antibody and HRP-labeled sheep anti-mouse IgG antibody.
(§2) The signal intensity detected using an image analyzer Typhoon 9400 (GE Healthcare) was quantified, and the phosphorylation inhibition rate (%) was calculated by the following formula. Phosphorylation inhibitory activity (%) of Akt and S6 after treatment with test compound=100−100×(B/A) A: Signal intensity derived from phosphorylated protein in tumor mass isolated from mouse untreated with test compound B: Signal intensity derived from phosphorylated protein in tumor mass isolated from mouse treated with test compound

[2] = tested on: human colon cancer cell strain HT29; experiment: Cell growth inhibition test (MTT), HT29; format: cell-based; settings: HT-29, 72 h, HT29, 3 days culture, read-out: concentration exhibiting anti-cell effect (GI50)
Summary of the method: (§3)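 MTT read-out at 540 nm after 4 h formazan formation gives living cell count following 3-day compound exposure at 37° C, 5% CO2. Seeding: 5000 AN3CA, 1000 IGROV1, 5000 HT29 cells/well. Growth rate T/C % = 100×[(B−C)/(A−C)], with C taken before dosing; GI50 = concentration giving 50% growth.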

PI3Kα = PI3Kα (Homo sapiens, UniProt P42336); experiment: PI3K kinase activity inhibition assay; format: biochemical; settings: Kinase-Glo Plus ATP detection, read-out: IC50 against PI3K
Summary of the method: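 PI3Kα (50 nM solution) was reacted with 30 μM ATP and 45 μM PIP2 solutions, each in HEPES pH 7.4 with MgCl2 and DTT, for 2 h at room temperature. Remaining ATP was measured by Kinase-Glo Plus luminescence, and inhibition was derived from ATP consumed. IC50 was taken from curve fitting of the serial dilutions.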

[3] = tested on: S6 (serine 235 and 236) phosphorylation in AN3CA tumor; experiment: S6 phosphorylation inhibition assay in xenograft; format: in vivo, female nude mouse; settings: Mus musculus, AN3-CA, oral, 6 hr after dosing
Procedure: as §1, §2

[4] = tested on: human endometrial cancer cell strain AN3CA; experiment: Cell growth inhibition test (MTT), AN3CA; format: cell-based; settings: AN3-CA, 72 h, 3 days culture, read-out: concentration exhibiting anti-cell effect (GI50)
Summary of the method: as §3

Sequence of PI3Kα (P42336 whole entry, species assumed): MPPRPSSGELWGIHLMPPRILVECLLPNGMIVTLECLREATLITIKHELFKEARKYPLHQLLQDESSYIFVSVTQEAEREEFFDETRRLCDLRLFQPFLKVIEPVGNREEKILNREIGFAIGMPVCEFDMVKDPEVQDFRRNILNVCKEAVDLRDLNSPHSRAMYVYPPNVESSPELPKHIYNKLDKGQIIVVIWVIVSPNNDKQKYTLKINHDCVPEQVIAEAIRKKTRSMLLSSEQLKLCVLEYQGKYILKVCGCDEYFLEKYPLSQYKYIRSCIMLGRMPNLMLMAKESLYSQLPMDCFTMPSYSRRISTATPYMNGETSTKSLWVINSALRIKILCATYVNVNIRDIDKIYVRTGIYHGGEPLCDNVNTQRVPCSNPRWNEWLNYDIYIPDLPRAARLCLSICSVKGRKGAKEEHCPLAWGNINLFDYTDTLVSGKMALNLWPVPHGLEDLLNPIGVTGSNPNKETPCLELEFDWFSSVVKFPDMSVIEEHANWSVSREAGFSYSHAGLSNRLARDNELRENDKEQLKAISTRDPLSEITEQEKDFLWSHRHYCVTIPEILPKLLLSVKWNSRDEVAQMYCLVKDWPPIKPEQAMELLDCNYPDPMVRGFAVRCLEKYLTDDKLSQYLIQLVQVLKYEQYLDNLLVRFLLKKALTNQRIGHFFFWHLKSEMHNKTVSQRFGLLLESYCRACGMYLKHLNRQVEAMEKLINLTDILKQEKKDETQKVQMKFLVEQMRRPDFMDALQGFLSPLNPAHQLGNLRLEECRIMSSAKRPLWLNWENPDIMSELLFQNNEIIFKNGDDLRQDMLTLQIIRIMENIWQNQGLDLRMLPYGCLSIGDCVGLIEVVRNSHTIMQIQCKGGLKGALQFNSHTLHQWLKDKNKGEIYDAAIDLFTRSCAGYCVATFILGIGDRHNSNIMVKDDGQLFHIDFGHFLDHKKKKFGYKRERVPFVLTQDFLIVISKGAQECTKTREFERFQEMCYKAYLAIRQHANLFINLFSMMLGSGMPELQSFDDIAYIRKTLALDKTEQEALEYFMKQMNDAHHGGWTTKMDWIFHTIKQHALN
Sequence of PI3Kα (P27986 whole entry partner, species assumed): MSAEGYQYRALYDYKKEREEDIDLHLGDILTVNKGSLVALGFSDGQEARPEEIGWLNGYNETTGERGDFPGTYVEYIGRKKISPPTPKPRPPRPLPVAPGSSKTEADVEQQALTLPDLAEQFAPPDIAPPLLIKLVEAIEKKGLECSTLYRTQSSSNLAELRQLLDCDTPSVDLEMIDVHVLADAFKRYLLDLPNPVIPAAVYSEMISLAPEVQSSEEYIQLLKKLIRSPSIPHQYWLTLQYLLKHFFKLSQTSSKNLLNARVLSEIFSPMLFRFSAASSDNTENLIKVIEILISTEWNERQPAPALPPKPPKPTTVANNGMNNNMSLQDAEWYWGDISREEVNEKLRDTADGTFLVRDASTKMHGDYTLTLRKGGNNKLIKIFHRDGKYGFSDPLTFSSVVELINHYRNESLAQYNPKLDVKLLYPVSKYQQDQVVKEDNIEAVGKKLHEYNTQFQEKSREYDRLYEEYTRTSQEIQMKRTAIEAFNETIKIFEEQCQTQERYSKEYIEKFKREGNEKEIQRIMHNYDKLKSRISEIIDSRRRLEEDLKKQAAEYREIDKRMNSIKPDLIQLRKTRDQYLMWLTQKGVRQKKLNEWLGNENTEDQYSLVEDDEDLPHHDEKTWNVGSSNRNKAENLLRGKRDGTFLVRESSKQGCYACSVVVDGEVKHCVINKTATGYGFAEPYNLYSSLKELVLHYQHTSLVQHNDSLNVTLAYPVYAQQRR

Row | SMILES | inhibition at 10 mg/kg [1] [%] | GI50 [2] [µM] | IC50 (PI3Kα) [µM] | inhibition at 10 mg/kg [3] [%] | GI50 [4] [µM]
1 | C[C@H](O)C(=O)N1CCN(c2nc3c(N4CCOCC4)nc(-c4cnc(N)nc4)nc3n2CC2CC2)C[C@H]1C [Example 95, (2S)-1-{(2R)-4-[2-(2-Aminopyrimidin-5-yl)-9-(cyclopropylmethyl)-6-morpholin-4-yl-9H-purin-8-yl]-2-methylpiperazin-1-yl}-1-oxopropan-2-ol] | > 60 | ≤ 5 | 0.01 to 0.02 | 70 to 90 | ≤ 5
2 | CC(C)Cn1c(N2CCN(C(=O)C[C@@H](C)O)[C@H](C)C2)nc2c(N3CCOCC3)nc(-c3cnc(N)nc3)nc21 [Example 84, (2R)-4-{(2R)-4-[2-(2-Aminopyrimidin-5-yl)-9-isobutyl-6-morpholin-4-yl-9H-purin-8-yl]-2-methylpiperazin-1-yl}-4-oxobutan-2-ol] | > 60 | ≤ 5 | < 0.01 | > 90 | ≤ 5
3 | CC(=O)N1CCN(c2nc3c(N4CCOCC4)nc(-c4cnc(N)nc4)nc3n2CC(F)(F)F)CC12CC2 [Example 119, 5-[8-(4-Acetyl-4,7-diazaspiro[2.5]oct-7-yl)-6-morpholin-4-yl-9-(2,2,2-trifluoroethyl)-9H-purin-2-yl]pyrimidin-2-amine] | 30 to 60 | ≤ 5 | < 0.01 | > 90 | ≤ 5
4 | CC(C)Cn1c(N2CCN(C(=O)[C@H](C)O)[C@@H](C)C2)nc2c(N3CCOCC3)nc(-c3cnc(N)nc3)nc21 [Example 104, (2S)-1-{(2S)-4-[2-(2-Aminopyrimidin-5-yl)-9-isobutyl-6-morpholin-4-yl-9H-purin-8-yl]-2-methylpiperazin-1-yl}-1-oxopropan-2-ol] | > 60 | ≤ 5 | 0.01 to 0.02 | > 90 | ≤ 5
5 | CC(C)Cn1c(N2CCN(C(=O)C[C@H](C)O)CC2)nc2c(N3CCOCC3)nc(-c3cnc(N)nc3)nc21 [Example 82, (2S)-4-{4-[2-(2-Aminopyrimidin-5-yl)-9-isobutyl-6-morpholin-4-yl-9H-purin-8-yl]piperazin-1-yl}-4-oxobutan-2-ol] | > 60 | ≤ 5 | 0.01 to 0.02 | > 90 | ≤ 5
6 | C[C@H](O)C(=O)N1CCN(c2nc3c(N4CCOCC4)nc(-c4cnc(N)nc4)nc3n2CC2CC2)CC1 [Example 88, (2S)-1-{4-[2-(2-Aminopyrimidin-5-yl)-9-(cyclopropylmethyl)-6-morpholin-4-yl-9H-purin-8-yl]piperazin-1-yl}-1-oxopropan-2-ol] | > 60 | ≤ 5 | < 0.01 | 70 to 90 | ≤ 5
7 | CC(C)Cn1c(N2CCN(C(=O)[C@H](C)O)CC2)nc2c(N3CCOC[C@@H]3C)nc(-c3cnc(N)nc3)nc21 [Example 131, (2S)-1-(4-{2-(2-Aminopyrimidin-5-yl)-9-isobutyl-6-[(3S)-3-methylmorpholin-4-yl]-9H-purin-8-yl}piperazin-1-yl)-1-oxopropan-2-ol] | > 60 | ≤ 5 | 0.01 to 0.02 | > 90 | ≤ 5
8 | C[C@@H]1CN(c2nc3c(N4CCOCC4)nc(-c4cnc(N)nc4)nc3n2CC2CC2)CCN1C(=O)[C@@H](C)O [Example 114, (2R)-1-{(2R)-4-[2-(2-Aminopyrimidin-5-yl)-9-(cyclopropylmethyl)-6-morpholin-4-yl-9H-purin-8-yl]-2-methylpiperazin-1-yl}-1-oxopropan-2-ol] | > 60 | ≤ 5 | < 0.01 | > 90 | ≤ 5
9 | CC(C)Cn1c(N2CCN(C(=O)CO)CC2)nc2c(N3CCOC[C@@H]3C)nc(-c3cnc(N)nc3)nc21 [Example 130, 2-(4-{2-(2-Aminopyrimidin-5-yl)-9-isobutyl-6-[(3S)-3-methylmorpholin-4-yl]-9H-purin-8-yl}piperazin-1-yl)-2-oxoethanol] | 30 to 60 | ≤ 5 | 0.01 to 0.02 | > 90 | ≤ 5
10 | Nc1ncc(-c2nc(N3CCOCC3)c3nc(N4CCN(C=O)CC4)n(CC(F)(F)F)c3n2)cn1 [Example 71, 4-[2-(2-Aminopyrimidin-5-yl)-6-morpholin-4-yl-9-(2,2,2-trifluoroethyl)-9H-purin-8-yl]piperazine-1-carboaldehyde] | > 60 | ≤ 5 | < 0.01 | > 90 | ≤ 5
11 | CS(=O)(=O)N1CCN(c2nc3c(N4CCOCC4)nc(-c4cnc(N)nc4)nc3n2CC2CC2)CC1 [Example 3, 5-{9-(Cyclopropylmethyl)-8-[4-(methylsulfonyl)piperazin-1-yl]-6-morpholin-4-yl-9H-purin-2-yl}pyrimidin-2-amine] | > 60 | ≤ 5 | < 0.01 | > 90 | ≤ 5
12 | C[C@H](O)CC(=O)N1CCN(c2nc3c(N4CCOCC4)nc(-c4cnc(N)nc4)nc3n2CC(F)(F)F)CC1 [Example 69, (2S)-4-{4-[2-(2-Aminopyrimidin-5-yl)-6-morpholin-4-yl-9-(2,2,2-trifluoroethyl)-9H-purin-8-yl]piperazin-1-yl}-4-oxobutan-2-ol] | > 60 | ≤ 5 | < 0.01 | > 90 | ≤ 5
13 | CNc1ncc(-c2nc(N3CCOCC3)c3nc(N4CCN(C(C)=O)[C@@H](C)C4)n(CC(F)(F)F)c3n2)cn1 [Example 107, 5-{8-[(3S)-4-Acetyl-3-methylpiperazin-1-yl]-6-morpholin-4-yl-9-(2,2,2-trifluoroethyl)-9H-purin-2-yl}-N-methylpyrimidin-2-amine] | > 60 | ≤ 5 | < 0.01 | > 90 | ≤ 5
14 | CC[C@@H]1CN(c2nc3c(N4CCOCC4)nc(-c4cnc(N)nc4)nc3n2CC(F)(F)F)CCN1C(=O)[C@H](C)O [Example 79] | > 60 | ≤ 5 | < 0.01 | > 90 | ≤ 5
15 | CC(C)Cn1c(N2CCN(C(=O)C[C@@H](C)O)CC2)nc2c(N3CCOCC3)nc(-c3cnc(N)nc3)nc21 [Example 81, (2R)-4-{4-[2-(2-Aminopyrimidin-5-yl)-9-isobutyl-6-morpholin-4-yl-9H-purin-8-yl]piperazin-1-yl}-4-oxobutan-2-ol] | > 60 | ≤ 5 | < 0.01 | > 90 | ≤ 5
16 | CC(=O)N1[C@H](C)CN(c2nc3c(N4CCOCC4)nc(-c4cnc(N)nc4)nc3n2CC(F)(F)F)C[C@@H]1C [Example 115, 5-[8-(4-Acetyl-cis-3,5-dimethylpiperazin-1-yl)-6-morpholin-4-yl-9-(2,2,2-trifluoroethyl)-9H-purin-2-yl]pyrimidin-2-amine] | > 60 | ≤ 5 | < 0.01 | > 90 | ≤ 5
17 | CC(C)Cn1c(N2CCN(C(=O)CO)CC2)nc2c(N3CCOCC3)nc(-c3cnc(N)nc3)nc21 [Example 89, 2-{4-[2-(2-Aminopyrimidin-5-yl)-9-isobutyl-6-morpholin-4-yl-9H-purin-8-yl]piperazin-1-yl}-2-oxoethanol] | > 60 | ≤ 5 | < 0.01 | 70 to 90 | ≤ 5
18 | CC(C)Cn1c(N2CCN(C=O)[C@@H](C)C2)nc2c(N3CCOCC3)nc(-c3cnc(N)nc3)nc21 [Example 102, (2S)-4-[2-(2-Aminopyrimidin-5-yl)-9-isobutyl-6-morpholin-4-yl-9H-purin-8-yl]-2-methylpiperazine-1-carboaldehyde] | > 60 | ≤ 5 | < 0.01 | > 90 | ≤ 5
19 | C[C@H]1CN(c2nc3c(N4CCOCC4)nc(-c4cnc(N)nc4)nc3n2CC(F)(F)F)CCN1S(C)(=O)=O [Example 62, 5-{8-[(3S)-3-Methyl-4-(methylsulfonyl)piperazin-1-yl]-6-morpholin-4-yl-9-(2,2,2-trifluoroethyl)-9H-purin-2-yl}pyrimidin-2-amine] | 30 to 60 | ≤ 5 | < 0.01 | > 90 | ≤ 5
